We go through 38 molecules from patent publication US7589097B2, “Triazol[4,5-d] pyramidine derivatives and their use as purinergic receptor antagonists” (Vernalis Research Limited, priority 2001, dated 2009).

Counter-ions that a name gives are not always drawn.

One may read the melting point as the temperature of the solid-liquid transition. For the molecule `COc1ccccc1Cn1nnc2c(-c3ccc(C)o3)nc(N)nc21` [Example 72, 3-(2-methyoxybenzyl)-7-(5-methyl-2-furyl)-3H-[1,2,3]triazolo[4,5-d]pyrimidine-5-amine], the melting point lay in the range of 195.4 to 196.5 °C.
`Cc1ccnc(Cn2nnc3c(-c4ccco4)nc(N)nc32)c1` [Example 131, 7-(2-furyl)-3-(4-methyl-2-pyridylmethyl)-3H-[1,2,3]triazolo[4,5-d]pyrimidine-5-amine] returned a melting point of 225.7 to 225.8 °C.
As for `Nc1nc(-c2ccco2)c2nnn(CC(=O)O)c2n1` [Example 26, (5-Amino-7-(2-furyl)-3H-[1,2,3]triazolo[4,5-d]pyrimidin-3-yl)acetic acid], the figure is 291 to 291.1 °C; as for `Cc1ccc(-c2nc(N)nc3c2nnn3Cc2cccc(-c3ccccc3)n2)o1` [Example 82, 7-(5-methyl-2-furyl)-3-(6-phenyl-2-pyridylmethyl)-3H-[1,2,3]triazolo[4,5-d]pyrimidine-5-amine], 205 to 205.3 °C; as for `CC(C)COCc1cccc(Cn2nnc3c(-c4ccco4)nc(N)nc32)n1` [Example 217, 7-(2-furyl)-3-(6-isobutyloxymethyl-2-pyridylmethyl)-3H-[1,2,3]triazolo[4,5-d]pyrimidine-5-amine], 146.7 to 149.3 °C.
The value for `Cc1ccc(-c2nc(N)nc3c2nnn3Cc2cccc(CNC(=O)OC(C)(C)C)c2)o1` [Example 73, tert-butyl N-(3-(5-amino-7-(5-methyl-2-furyl)-3H-[1,2,3]triazolo[4,5-d]pyrimidine-3-ylmethyl)benzyl)carbamate] was 178.7 to 179.3 °C; that for `Cc1ccc(-c2nc(N)nc3c2nnn3Cc2cc(N)ccc2F)o1` (as salt: hydrochloride) [Example 84, 3-(5-amino-2-fluorobenzyl)-7-(5-methyl-2-furyl)-3H-[1,2,3]triazolo[4,5-d]pyrimidine-5-amine hydrochloride] was 235.8 to 236.5 °C; that for `COc1cccc(Cn2nnc3c(-c4ccco4)nc(N)nc32)n1` [Example 32, 7-(2-furyl)-3-(6-methoxy-2-pyridylmethyl)-3H-[1,2,3]triazolo[4,5-d]pyrimidine-5-amine] was 191.4 to 192 °C.
As for `Cc1cccc(C(=O)C(C)n2nnc3c(-c4ccco4)nc(N)nc32)n1` (centres unmarked) [Example 190, 2-(5-amino-7-(2-furyl)-3H-[1,2,3]triazolo[4,5-d]pyrimidin-3-yl)-1-(6-methyl-2-pyridyl)propanone], the figure is 290.2 to 290.3 °C; as for `Cc1ccc([N+](=O)[O-])c(Cn2nnc3c(-c4ccco4)nc(N)nc32)c1` [Example 96, 7-(2-furyl)-3-(5-methyl-2-nitrobenzyl)-3H-[1,2,3]triazolo[4,5-d]pyrimidine-5-amine], 226.6 to 226.9 °C; as for `Nc1nc(-c2ccco2)c2nnn(Cc3cccc4[nH]ccc34)c2n1` [Example 139, 7-(2-furyl)-3-(4-indolylmethyl)-3H-[1,2,3]triazolo[4,5-d]pyrimidine-5-amine], 192.3 to 193.5 °C.
`Nc1ccc(F)c(Cn2nnc3c(-c4ccco4)nc(N)nc32)c1` [Example 79, 3-(5-amino-2-fluorobenzyl)-7-(2-furyl)-3H-[1,2,3]triazolo[4,5-d]pyrimidine-5-amine]: the melting point is 308.2 to 308.3 °C.
The value for `Cc1ccc(N)c(Cn2nnc3c(-c4ccco4)nc(N)nc32)c1` [Example 104, 3-(2-amino-5-methylbenzyl)-7-(2-furyl)-3H-[1,2,3]triazolo[4,5-d]pyrimidine-5-amine] was 249.9 to 250.5 °C; that for `CC(C)c1cccc(Cn2nnc3c(-c4ccco4)nc(N)nc32)n1` [Example 197, 7-(2-furyl)-3-(6-isopropyl-2-pyridylmethyl)-3H-[1,2,3]triazolo[4,5-d]pyrimidine-5-amine] was 188.3 to 188.5 °C; that for `Cc1ccc(-c2nc(N)nc3c2nnn3Cc2c(F)cccc2F)o1` [Example 60, 3-(2,6-difluorobenzyl)-7-(5-methyl-2-furyl)-3H-[1,2,3]triazolo[4,5-d]pyrimidine-5-amine] was 209.7 to 209.8 °C.
The value for `NCc1ccccc1Cn1nnc2c(-c3ccco3)nc(N)nc21` [Example 161, 3-(2-aminomethylbenzyl)-7-(2-furyl)-3H-[1,2,3]triazolo[4,5-d]pyrimidine-5-amine] was > 250 °C (dec.); that for `CC(c1cccc(F)c1)n1nnc2c(-c3ccco3)nc(N)nc21` (centres unmarked) [Example 260, 3-(1-(3-fluorophenyl)ethyl)-7-(2-furyl)-3H-[1,2,3]triazolo[4,5-d]pyrimidine-5-amine] was 150.3 to 151 °C; that for `Nc1nc(-c2ccco2)c2nnn(Cc3cccs3)c2n1` [Example 33, 7-(2-furyl)-3-(2-thienylmethyl)-3H-[1,2,3]triazolo[4,5-d]pyrimidine-5-amine] was 204.1 to 204.2 °C.
Take `Nc1nc(-c2ccco2)c2nnn(Cc3cccc(Cl)c3)c2n1` [Example 27, 3-(3-chlorobenzyl)-7-(2-furyl)-3H-[1,2,3]triazolo[4,5-d]pyrimidine-5-amine]: the melting point was in the range of 209.9 to 210.1 °C.
As for `Cc1ccc(-c2nc(N)nc3c2nnn3Cc2ccc([N+](=O)[O-])c(C)c2)o1` [Example 123, 7-(5-methyl-2-furyl)-3-(3-methyl-4-nitrobenzyl)-3H-[1,2,3]triazolo[4,5-d]pyrimidine-5-amine], the figure is 214.6 to 216.2 °C; as for `CC(C)(C)OC(=O)n1ccc2cccc(Cn3nnc4c(-c5ccco5)nc(N)nc43)c21` [Example 137, tert-butyl 7-(5-amino-7-(2-furyl)-3H-[1,2,3]triazolo[4,5-d]pyrimidine-3-ylmethyl)indole-1-carboxylate], 176.3 to 176.5 °C; as for `Nc1ccc(Cn2nnc3c(-c4ccco4)nc(N)nc32)cc1` [Example 141, 3-(4-aminobenzyl)-7-(2-furyl)-3H-[1,2,3]triazolo[4,5-d]pyrimidine-5-amine], 240.3 to 240.4 °C.
As for `CC(C)(C)OC(=O)NCc1ccc(Cn2nnc3c(-c4ccco4)nc(N)nc32)cc1` [Example 140, tert-butyl N-(4-(5-amino-7-(2-furyl)-3H-[1,2,3]triazolo[4,5-d]pyrimidine-3-ylmethyl)benzyl)carbamate], the figure is 184 to 185.2 °C; as for `COc1ccc(C(=O)Cn2nnc3c(-c4ccco4)nc(N)nc32)cc1` [Example 229, 2-(5-amino-7-(2-furyl)-3H-[1,2,3]triazolo[4,5-d]pyrimidin-3-yl)-1-(4-methoxyphenyl)ethanone], 258.2 to 258.4 °C.
`Nc1nc(-c2ccco2)c2nnn(Cc3cc([N+](=O)[O-])cc([N+](=O)[O-])c3)c2n1`: the melting point was in the range of 264.5 to 264.8 °C.
In the case of `Nc1nc(-c2ccco2)c2nnn(CC(=O)Nc3ccccn3)c2n1` [Example 52, (5-amino-7-(2-furyl)-3H-[1,2,3]triazolo[4,5-d]pyrimidin-3-yl)-N-(2-pyridyl)acetamide], the melting point was 263.8 to 264 °C.
The value for `COCc1cccc(Cn2nnc3c(-c4ccco4)nc(N)nc32)n1` [Example 112, 7-(2-furyl)-3-(6-methoxymethyl-2-pyridylmethyl)-3H-[1,2,3]triazolo[4,5-d]pyrimidine-5-amine] was 190.4 to 191.4 °C.
The value for `NCc1cccc(Cn2nnc3c(-c4ccn[nH]4)nc(N)nc32)c1` [Example 101, 3-(3-Aminomethylbenzyl)-7-(1H-pyrazol-3-yl)-3H-[1,2,3]triazolo[4,5-d]pyrimidine-5-amine] was 279.9 to 280.3 °C; that for `Cc1noc(C)c1Cn1nnc2c(-c3ccco3)nc(N)nc21` [Example 91, 3-(3,5-dimethylisoxazol-4-ylmethyl)-7-(2-furyl)-3H-[1,2,3]triazolo[4,5-d]pyrimidine-5-amine] was 284.3 to 284.5 °C; that for `Cc1ccc(-c2nc(N)nc3c2nnn3Cc2cccc(Cl)n2)o1` [Example 81, 3-(6-chloro-2-pyridylmethyl)-7-(5-methyl-2-furyl)-3H-[1,2,3]triazolo[4,5-d]pyrimidine-5-amine] was 229.3 to 229.4 °C.
The value for `Cc1cnc(-c2nc(N)nc3c2nnn3Cc2ccccc2F)s1` [Example 38, 3-(2-fluorobenzyl)-7-(5-methyl-2-thiazolyl)-3H-[1,2,3]triazolo[4,5-d]pyrimidine-5-amine] was 242 to 242.1 °C.
Regarding `Nc1cccc(Cn2nnc3c(-c4ccccc4)nc(N)nc32)c1` [Example 151, 3-(3-aminobenzyl)-7-phenyl-3H-[1,2,3]triazolo[4,5-d]pyrimidine-5-amine], the melting point lay within 251.2 to 251.5 °C.
As for `Nc1nc(-c2ccco2)c2nnn(CC(=O)Nc3ccccc3)c2n1` [Example 54, (5-amino-7-(2-furyl)-3H-[1,2,3]triazolo[4,5-d]pyrimidin-3-yl)-N-phenylacetamide], the figure is 292.2 to 292.3 °C; as for `COc1ccccc1Cn1nnc2c(-c3ccco3)nc(N)nc21` [Example 77, 7-(2-furyl)-3-(2-methoxybenzyl)-3H-[1,2,3]triazolo[4,5-d]pyrimidine-5-amine], 212.1 to 214.3 °C.
With `Cc1cc(Cn2nnc3c(-c4ccco4)nc(N)nc32)cc(C)c1N` [Example 262, 3-(4-amino-3,5-dimethylbenzyl)-7-(2-furyl)-3H-[1,2,3]triazolo[4,5-d]pyrimidine-5-amine], the melting point was 250.1 to 261.3 °C.
As for `CCCc1cccc(Cn2nnc3c(-c4ccco4)nc(N)nc32)n1` [Example 216, 7-(2-furyl)-3-(6-n-propyl-2-pyridylmethyl)-3H-[1,2,3]triazolo[4,5-d]pyrimidine-5-amine], the figure is 178.3 to 178.5 °C; as for `Nc1nc(-c2cncs2)c2nnn(Cc3cccc([N+](=O)[O-])c3)c2n1` [Example 45, 3-(3-nitrobenzyl)-7-(5-thiazolyl)-3H-[1,2,3]triazolo[4,5-d]pyrimidine-5-amine], 190.4 to 190.8 °C.
Consider `CC(C)(C)OC(=O)n1ccc2c(Cn3nnc4c(-c5ccco5)nc(N)nc43)cccc21` [Example 138, tert-butyl 4-(5-amino-7-(2-furyl)-3H-[1,2,3]triazolo[4,5-d]pyrimidine-3-ylmethyl)indole-1-carboxylate], for which the melting point lay in the range of 58.5 to 62.6 °C.
